Test results: patent US12409199B2, “Methods of treating endometriosis and other noncancer gynecological disorders with hemp extract” (Ecofibre USA Inc., priority 2021, dated 2025)
Where two headings read alike, the source gives them in different places.

Tests used:
[1] = system: patient derived organoids; assay: Death of patient derived organoids, % of cells that died compared to control (Table 4); type: cell-based, human
Method: In addition to the agents listed above, several other drugs were tested to see if they influenced organoid growth. […] This is consistent with the patient's actual lack of response to treatment with paclitaxel.

[2] = system: stage IV chemoresistant endometrial cancer with metastatic disease; assay: Treatment of a patient with stage IV chemoresistant endometrial cancer, PET/CT follow up
From the text: Soon after the experiments detailed above a person came to us. They were initially diagnosed with endometriosis, and later diagnosed with endometrial cancer after presenting with significant pain and discomfort. They had already undergone a total hysterectomy and bilateral salpingo-oophorectomy followed by five rounds of chemotherapy. Each of the first five rounds of chemotherapy was a combined chemotherapy with Paclitaxil/Carboplatin.
See, Tables 1 and 2, below. […] As such, […] began standard protocol GemCap treatment in combination with a regime of 30 mg of BSHE twice daily via oral mucosal delivery and 75 mg of FSHE once daily via intravaginal delivery.

[3] = system: organoids crafted from the patient's endometrial cancer; assay: Response of organoids crafted from the patient's endometrial cancer to alternative chemotherapies and BSHE; type: cell-based, human
From the text: See, Tables 1 and 2, below.

[4] = system: endometriosis based organoids; assay: % viability of endometriosis based organoids (FIG. 6A/6B); type: cell-based, human
Method: After narrowing down the range in which 50% of endometrial cancer organoids were inhibited from forming in the presence of BSHE, we then turned to other cannabis extracts comprising CBE to determine their efficacy in inhibiting cancerous organoid formation. […] These cannabis extracts were then tested against endometrial based organoids, which confirm the efficacy across the different cells, both in the endometrial cancer based organoids as well as in the endometriosis based organoids.
FIG. 6B then tests the same endometrial based organoids with a CBDA isolate. Here, slightly higher concentrations were required to reach below 10% viability. […] However, these studies confirm that the efficacy of the CE comprising CBD was conserved over different grades of endometrial cancer and also to endometriosis based organoids.

[5] = system: patient derived endometrial cancer cells; assay: Patient-derived xenograft (PDX) mice, endometrial cancer tumor volume (FIG. 7); type: in vivo; conditions: for decrease in tumor volume compared to starting size: day 14 (6 doses)
Method: Mouse studies are useful to take cell-based applications and confirm their efficacy in a whole animal system. Furthermore, the mice allow for testing of systemic delivery of the drugs. […] The mice tests were performed according to the protocol in the method section, below.
Generally, EC stem cells from the same patients that participated in the organoid studies for endometrial cancer, were injected into the mice, and allowed to grow. After tumors reached a certain size, the mice were either injected (3 times/week) with the extract-delivery vehicle or with the particular cannabis extract. After a certain amount of time elapsed, tumor size was measured. The details regarding patient-derived xenograft methodology and experimental protocol are provided in the Methods section.
The % change is an average number taken from tumor volumes of three mice compared to the starting average tumor volume on day 0 of treatment. Change can either be positive (tumor increases in size) or negative (tumor decreases in size).
Human patient cells from endometrial cancer were injected subcutaneously into female NOD/SCID gamma mice after resuspending in 100 μL solution. […] Tumor size was measured before treatment, followed by twice a week measurements. All treatment group mice were kept alive for up to 10 weeks after drug injection or until the tumor volume grows bigger than 2500 mm^3.
Tumor size was measured along with body weight at the time of tissue collection. All tumor tissues were removed carefully from the euthanized mouse body. Tumor tissue samples were kept for histology, proteomics, genomics, and other downstream processing. All downstream processing was completed following NCI Patient-Derived Models Repository SOPs.

[6] = cited from earlier work
non-transformed cells = conditions: cited from earlier work
[7] = system: organoids derived from ovarian cancer tissue; assay: Impact of pH on % viable organoids (FIG. 9)
[8] = oral; cited from earlier work
[9] = before cannabis extract treatment

Question: For `N.N.[Cl][Pt][Cl]` [Cisplatin], which “% Cell Death” value [1] is on record?
Answer: 36%

Question: With “Paclitaxil/Carboplatin [reference compound]” as the compound, how does the “clinical outcome of earlier therapy” value [2, 9] read?
Answer: ineffective

Question: For gemcitabine/capecitabine [GemCap], which “response of the patient's organoids” value [3] is on record?
Answer: partial response

Question: What does the source list for `C=C(C)[C@@H]1CCC(C)=C[C@H]1c1c(O)cc(CCCCC)c(C(=O)O)c1O` [CBDA isolate, cannabidiolic acid]?
Answer: viability outcome ([4]; 50 μg/mL, FIG. 6B): complete resolution; viability at 15 µg/mL ([4]; Homo sapiens, 15 μg/mL, FIG. 6B): < 50%; viability at 25 µg/mL ([4]; Homo sapiens, 25 μg/mL, FIG. 6B, <10% is considered 95-100% cell death): < 10%; increase in average tumor volume vs day 0 ([5]; 30 mg/kg injected 3 times/week, day 7 (3 doses)): greater than 30%; decrease in average tumor volume vs day 0 ([5]; 30 mg/kg injected 3 times/week, day 10): greater than 30%; overall decrease in average tumor volume in three days ([5]; 30 mg/kg, day 7 to day 10): greater than 60%; decrease in tumor volume compared to starting size ([5]; 30 mg/kg): 70%; decrease in average tumor volume ([5]; 30 mg/kg, day 21 (9 doses)): ~100%

Question: For `N.N.O=C([O-])C1(C(=O)[O-])CCC1.[Pt+2]` [Carboplatin], which “% Cell Death” value [1] is on record?
Answer: 30%

Question: With 5-Fluorouaracil/Capecitabine as the compound, how does the “% Cell Death” value [1] read?
Answer: 61%

Question: Which “% Cell Death” value [1] does the source give for `O=P1(N(CCCl)CCCl)NCCCO1` (centres unmarked) [Cyclosphosphamide] here?
Answer: 32%

Question: With `CCN1CCN(Cc2ccc(Nc3ncc(F)c(-c4cc(F)c5nc(C)n(C(C)C)c5c4)n3)nc2)CC1` [Abemaciclib, reference compound] as the compound, how does the “adverse effects of earlier therapy” value ([2]; human, in vivo) read?
Answer: severe adverse effects

Question: With Bleomycin as the compound, how does the “% Cell Death” value [1] read?
Answer: 53%

Question: Which “potential for abuse or dependence” value ([6]; WHO 41st Expert Committee on Drug Dependence) does the source give for `C=C(C)[C@@H]1CCC(C)=C[C@H]1c1c(O)cc(CCCCC)cc1O` [CBD isolate, cannabidiol] here?
Answer: no potential for abuse and no potential to produce dependence

Question: And the well tolerated dose ([6]; chronic use, humans)?
Answer: up to 1,500 mg/day

Question: And the “effect on physiological parameters (heart rate, blood pressure and body temperature), gastrointestinal transit, psychomotor or psychological functions” value ([6]; in vivo)?
Answer: does not affect

Question: And the toxicity (non-transformed cells)?
Answer: non-toxic

Question: And the “efficacy compared with native pH” value ([7]; 10 μg/mL, pH 8)?
Answer: virtually no change

Question: What about the viability at 10 µg/mL ([7]; pH 4) of the same compound?
Answer: < 1%

Question: And the viability at 10 µg/mL ([7]; read-out: % of viable organoids)?
Answer: ~12%

Question: And the “lowest dose at which the organoids are completely treated” value ([4]; tested at 0, 1, 2, 3, 4, 5, 7, 10 μg/mL, FIG. 6A)?
Answer: 5 µg/mL

Question: And the “delayed maximum plasma concentration (time) in some individuals” value [8]?
Answer: up to 6 hours

Question: What about the “tumor response over the 21 days of treatment” value ([5]; 30 mg/kg injected 3 times/week) of the same compound?
Answer: not as responsive

Question: And the “decrease in tumor volume compared to starting size” value ([5]; 30 mg/kg)?
Answer: less than 50%

Question: Which results are given for Atezolizumab?
Answer: adverse effects of earlier therapy [2, 9]: severe adverse effects; clinical outcome of earlier therapy [2, 9]: failed
